Measured values reported in the supplement of paper PMC10307832.

Key:
Assay in all cases: relative viability (nuclei count vs DMSO), 5 days (fraction); higher = more cells survive
NCI-H647 = system: NCI-H647
Summary of the method: (§1)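 Each reported value is a median over duplicate plates. It expresses relative viability: treated-well nuclei count divided by vehicle-well nuclei count. Lung cancer cell lines in 1536-well plates were dosed by pin tool a day after seeding, alone with one drug or with a fixed anchor-drug dose plus five library-drug doses (not always all listed) in √10 steps, and nuclei were counted after 5 days.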

PC-14 = system: PC-14
Summary of the method: as §1

SW 900 = system: SW 900
Summary of the method: as §1

NCI-H520 = system: NCI-H520
Summary of the method: as §1

HCC-15 = system: HCC-15
Summary of the method: as §1

UMC-11 = system: UMC-11
Summary of the method: as §1

NCI-H322M = system: NCI-H322M
Summary of the method: as §1

NCI-H2405 = system: NCI-H2405
Summary of the method: as §1

NCI-H2170 = system: NCI-H2170
Summary of the method: as §1

NCI-H441 = system: NCI-H441
Summary of the method: as §1

NCI-H1734 = system: NCI-H1734
Summary of the method: as §1

NCI-H1793 = system: NCI-H1793
Summary of the method: as §1

NCI-H3122 = system: NCI-H3122
Summary of the method: as §1

NCI-H2023 = system: NCI-H2023
Summary of the method: as §1

NCI-H1650 = system: NCI-H1650
Summary of the method: as §1

EPLC-272H = system: EPLC-272H
Summary of the method: as §1

H3255 = system: H3255
Summary of the method: as §1

LOU-NH91 = system: LOU-NH91
Summary of the method: as §1

COR-L23 = system: COR-L23
Summary of the method: as §1

201T = system: 201T
Summary of the method: as §1

NCI-H2347 = system: NCI-H2347
Summary of the method: as §1

## COc1nc(C)cnc1NS(=O)(=O)c1cccnc1-c1ccc(-c2nnco2)cc1 [Zibotentan] + CC(=O)c1c(C)c2cnc(Nc3ccc(N4CCNCC4)cn3)nc2n(C2CCCC2)c1=O [Palbociclib] (partner 0.5 µM)
NCI-H647; first compound 0.08 µM
  relative viability: 0.471
NCI-H647; first compound 0.253 µM
  relative viability: 0.358
NCI-H647; first compound 0.8 µM
  relative viability: 0.361
NCI-H647; first compound 2.53 µM
  relative viability: 0.469
PC-14; first compound 0.08 µM
  relative viability: 0.68
PC-14; first compound 0.253 µM
  relative viability: 0.459
PC-14; first compound 0.8 µM
  relative viability: 0.607
PC-14; first compound 2.53 µM
  relative viability: 0.519
SW 900; first compound 0.08 µM
  relative viability: 0.541
SW 900; first compound 0.253 µM
  relative viability: 0.565
SW 900; first compound 0.8 µM
  relative viability: 0.487
SW 900; first compound 2.53 µM
  relative viability: 0.564
NCI-H520; first compound 0.08 µM
  relative viability: 0.219
NCI-H520; first compound 0.253 µM
  relative viability: 0.208
NCI-H520; first compound 0.8 µM
  relative viability: 0.208
NCI-H520; first compound 2.53 µM
  relative viability: 0.248
HCC-15; first compound 0.08 µM
  relative viability: 0.796
HCC-15; first compound 0.253 µM
  relative viability: 0.641
HCC-15; first compound 0.8 µM
  relative viability: 0.796
HCC-15; first compound 2.53 µM
  relative viability: 0.713
UMC-11; first compound 0.08 µM
  relative viability: 0.35
UMC-11; first compound 0.253 µM
  relative viability: 0.323
UMC-11; first compound 0.8 µM
  relative viability: 0.363
UMC-11; first compound 2.53 µM
  relative viability: 0.323
NCI-H322M; first compound 0.08 µM
  relative viability: 0.465
NCI-H322M; first compound 0.253 µM
  relative viability: 0.408
NCI-H322M; first compound 0.8 µM
  relative viability: 0.49
NCI-H322M; first compound 2.53 µM
  relative viability: 0.521
NCI-H2405; first compound 0.08 µM
  relative viability: 0.544
NCI-H2405; first compound 0.253 µM
  relative viability: 0.546
NCI-H2405; first compound 0.8 µM
  relative viability: 0.544
NCI-H2405; first compound 2.53 µM
  relative viability: 0.55
NCI-H2170; first compound 0.08 µM
  relative viability: 0.389
NCI-H2170; first compound 0.253 µM
  relative viability: 0.369
NCI-H2170; first compound 0.8 µM
  relative viability: 0.403
NCI-H2170; first compound 2.53 µM
  relative viability: 0.371
NCI-H441; first compound 0.08 µM
  relative viability: 0.237
NCI-H441; first compound 0.253 µM
  relative viability: 0.197
NCI-H441; first compound 0.8 µM
  relative viability: 0.254
NCI-H441; first compound 2.53 µM
  relative viability: 0.24
NCI-H1734; first compound 0.08 µM
  relative viability: 0.337
NCI-H1734; first compound 0.253 µM
  relative viability: 0.32
NCI-H1734; first compound 0.8 µM
  relative viability: 0.374
NCI-H1734; first compound 2.53 µM
  relative viability: 0.407
NCI-H1793; first compound 0.08 µM
  relative viability: 0.362
NCI-H1793; first compound 0.253 µM
  relative viability: 0.378
NCI-H1793; first compound 0.8 µM
  relative viability: 0.287
NCI-H1793; first compound 2.53 µM
  relative viability: 0.296
NCI-H3122; first compound 0.08 µM
  relative viability: 0.186
NCI-H3122; first compound 0.253 µM
  relative viability: 0.177
NCI-H3122; first compound 0.8 µM
  relative viability: 0.154
NCI-H3122; first compound 2.53 µM
  relative viability: 0.18
NCI-H2023; first compound 0.08 µM
  relative viability: 0.409
NCI-H2023; first compound 0.8 µM
  relative viability: 0.355
NCI-H2023; first compound 2.53 µM
  relative viability: 0.356
NCI-H1650; first compound 0.08 µM
  relative viability: 0.335
NCI-H1650; first compound 0.8 µM
  relative viability: 0.357
NCI-H1650; first compound 2.53 µM
  relative viability: 0.336
EPLC-272H; first compound 0.08 µM
  relative viability: 0.348
EPLC-272H; first compound 0.253 µM
  relative viability: 0.246
EPLC-272H; first compound 0.8 µM
  relative viability: 0.366
EPLC-272H; first compound 2.53 µM
  relative viability: 0.33
H3255; first compound 0.08 µM
  relative viability: 0.317
H3255; first compound 0.253 µM
  relative viability: 0.318
H3255; first compound 0.8 µM
  relative viability: 0.355
H3255; first compound 2.53 µM
  relative viability: 0.283
LOU-NH91; first compound 0.08 µM
  relative viability: 0.483
LOU-NH91; first compound 0.253 µM
  relative viability: 0.544
LOU-NH91; first compound 0.8 µM
  relative viability: 0.504
LOU-NH91; first compound 2.53 µM
  relative viability: 0.476
COR-L23; first compound 0.08 µM
  relative viability: 0.338
COR-L23; first compound 0.253 µM
  relative viability: 0.225
COR-L23; first compound 0.8 µM
  relative viability: 0.366
COR-L23; first compound 2.53 µM
  relative viability: 0.322
201T; first compound 0.08 µM
  relative viability: 0.357
201T; first compound 0.253 µM
  relative viability: 0.346
201T; first compound 0.8 µM
  relative viability: 0.359
201T; first compound 2.53 µM
  relative viability: 0.363
NCI-H2347; first compound 0.08 µM
  relative viability: 0.407
NCI-H2347; first compound 0.253 µM
  relative viability: 0.445
NCI-H2347; first compound 0.8 µM
  relative viability: 0.439
NCI-H2347; first compound 2.53 µM
  relative viability: 0.454

## COc1nc(C)cnc1NS(=O)(=O)c1cccnc1-c1ccc(-c2nnco2)cc1 [Zibotentan] + Cc1cc(Nc2cc(N3CCN(C)CC3)nc(Sc3ccc(NC(=O)C4CC4)cc3)n2)n[nH]1 [Tozasertib] (partner 0.1 µM)
NCI-H647; first compound 0.08 µM
  relative viability: 0.307
NCI-H647; first compound 0.253 µM
  relative viability: 0.183
NCI-H647; first compound 0.8 µM
  relative viability: 0.298
NCI-H647; first compound 2.53 µM
  relative viability: 0.262
PC-14; first compound 0.08 µM
  relative viability: 0.555
PC-14; first compound 0.253 µM
  relative viability: 0.527
PC-14; first compound 0.8 µM
  relative viability: 0.583
PC-14; first compound 2.53 µM
  relative viability: 0.567
SW 900; first compound 0.08 µM
  relative viability: 0.553
SW 900; first compound 0.253 µM
  relative viability: 0.549
SW 900; first compound 0.8 µM
  relative viability: 0.617
SW 900; first compound 2.53 µM
  relative viability: 0.586
NCI-H520; first compound 0.08 µM
  relative viability: 0.431
NCI-H520; first compound 0.253 µM
  relative viability: 0.479
NCI-H520; first compound 0.8 µM
  relative viability: 0.441
NCI-H520; first compound 2.53 µM
  relative viability: 0.442
HCC-15; first compound 0.08 µM
  relative viability: 0.481
HCC-15; first compound 0.253 µM
  relative viability: 0.314
HCC-15; first compound 0.8 µM
  relative viability: 0.373
HCC-15; first compound 2.53 µM
  relative viability: 0.402
UMC-11; first compound 0.08 µM
  relative viability: 0.23
UMC-11; first compound 0.253 µM
  relative viability: 0.204
UMC-11; first compound 0.8 µM
  relative viability: 0.201
UMC-11; first compound 2.53 µM
  relative viability: 0.203
NCI-H322M; first compound 0.08 µM
  relative viability: 0.464
NCI-H322M; first compound 0.253 µM
  relative viability: 0.479
NCI-H322M; first compound 0.8 µM
  relative viability: 0.496
NCI-H322M; first compound 2.53 µM
  relative viability: 0.534
NCI-H2405; first compound 0.08 µM
  relative viability: 0.747
NCI-H2405; first compound 0.253 µM
  relative viability: 0.716
NCI-H2405; first compound 0.8 µM
  relative viability: 0.798
NCI-H2405; first compound 2.53 µM
  relative viability: 0.77
NCI-H2170; first compound 0.08 µM
  relative viability: 0.789
NCI-H2170; first compound 0.253 µM
  relative viability: 0.693
NCI-H2170; first compound 0.8 µM
  relative viability: 0.809
NCI-H2170; first compound 2.53 µM
  relative viability: 0.741
NCI-H441; first compound 0.08 µM
  relative viability: 0.633
NCI-H441; first compound 0.253 µM
  relative viability: 0.545
NCI-H441; first compound 0.8 µM
  relative viability: 0.728
NCI-H441; first compound 2.53 µM
  relative viability: 0.592
NCI-H1734; first compound 0.08 µM
  relative viability: 0.283
NCI-H1734; first compound 0.253 µM
  relative viability: 0.253
NCI-H1734; first compound 0.8 µM
  relative viability: 0.247
NCI-H1734; first compound 2.53 µM
  relative viability: 0.326
NCI-H1793; first compound 0.08 µM
  relative viability: 0.336
NCI-H1793; first compound 0.253 µM
  relative viability: 0.352
NCI-H1793; first compound 0.8 µM
  relative viability: 0.273
NCI-H1793; first compound 2.53 µM
  relative viability: 0.3
NCI-H3122; first compound 0.08 µM
  relative viability: 0.399
NCI-H3122; first compound 0.8 µM
  relative viability: 0.361
NCI-H3122; first compound 2.53 µM
  relative viability: 0.413
NCI-H2023; first compound 0.08 µM
  relative viability: 0.356
NCI-H2023; first compound 0.253 µM
  relative viability: 0.254
NCI-H2023; first compound 0.8 µM
  relative viability: 0.298
NCI-H2023; first compound 2.53 µM
  relative viability: 0.387
NCI-H1650; first compound 0.08 µM
  relative viability: 0.491
NCI-H1650; first compound 0.8 µM
  relative viability: 0.487
NCI-H1650; first compound 2.53 µM
  relative viability: 0.418
EPLC-272H; first compound 0.08 µM
  relative viability: 0.264
EPLC-272H; first compound 0.253 µM
  relative viability: 0.234
EPLC-272H; first compound 0.8 µM
  relative viability: 0.331
EPLC-272H; first compound 2.53 µM
  relative viability: 0.281
H3255; first compound 0.08 µM
  relative viability: 0.693
H3255; first compound 0.253 µM
  relative viability: 0.604
H3255; first compound 0.8 µM
  relative viability: 0.742
H3255; first compound 2.53 µM
  relative viability: 0.888
LOU-NH91; first compound 0.08 µM
  relative viability: 0.729
LOU-NH91; first compound 0.253 µM
  relative viability: 0.586
LOU-NH91; first compound 0.8 µM
  relative viability: 0.722
LOU-NH91; first compound 2.53 µM
  relative viability: 0.669
COR-L23; first compound 0.08 µM
  relative viability: 0.218
COR-L23; first compound 0.253 µM
  relative viability: 0.216
COR-L23; first compound 0.8 µM
  relative viability: 0.224
COR-L23; first compound 2.53 µM
  relative viability: 0.337
201T; first compound 0.08 µM
  relative viability: 1.07
201T; first compound 0.253 µM
  relative viability: 0.881
201T; first compound 0.8 µM
  relative viability: 0.955
201T; first compound 2.53 µM
  relative viability: 1.04
NCI-H2347; first compound 0.253 µM
  relative viability: 0.49
NCI-H2347; first compound 0.8 µM
  relative viability: 0.432
NCI-H2347; first compound 2.53 µM
  relative viability: 0.537
